pIC50: −log10 of the molar value. Values after ≈ are worked out from the molar mass of the structure shown. Structures can show the parent of a compound that is named as a salt.
How the values were obtained:
[1] = test system: Mycobacterium tuberculosis; assay: Antimycobacterial activity against Mycobacterium tuberculosis H37Ra ATCC 25177 assessed as inhibition of bacteria at 30 ug/ml by XTT reduction menadione assay relative to control; format: functional
[2] = test system: Mycobacterium tuberculosis; assay: Antimycobacterial activity against Mycobacterium tuberculosis by microplate alamar blue assay; format: functional
[3] = test system: Mycobacterium tuberculosis; assay: Antimycobacterial activity against Mycobacterium tuberculosis H37Rv assessed as growth inhibition at 50 ug/ml by Lowenstein-Jensen method relative to control; format: functional; conditions: read-out: GI
[4] = test system: Mycobacterium tuberculosis; assay: Antimycobacterial activity against Mycobacterium tuberculosis H37Rv measured after 12 to 28 days by Lowenstein-Jensen method; format: functional; conditions: time 12-28 day
[5] = test system: Mycobacterium tuberculosis; assay: Antimycobacterial activity against Mycobacterium tuberculosis H37Ra ATCC 25177 incubated for 7 days by microplate alamar blue assay; format: functional; conditions: H37Ra ATCC 25177, 168 h, time 7 day
[6] = Selectivity index, ratio of IC50 for African green monkey Vero cells to MIC for antitubercular activity against Mycobacterium tuberculosis H37Ra ATCC 25177; format: toxicity
[7] = test system: Mycobacterium tuberculosis; assay: Bactericidal activity against Mycobacterium tuberculosis H37Ra ATCC 25177 assessed as ratio of MBC to MIC; format: functional
[8] = test system: Mycobacterium tuberculosis; assay: Antimycobacterial activity against Mycobacterium tuberculosis H37Ra ATCC 25177 measured on 8th to 12th day by XTT reduction menadione assay; format: functional; conditions: time 8-12 day
[9] = test system: Mycobacterium tuberculosis; assay: Antimycobacterial activity against Mycobacterium tuberculosis; format: functional
[10] = test system: Mycobacterium tuberculosis; assay: Antimycobacterial activity against Mycobacterium tuberculosis H37Rv assessed as growth inhibition at 12.5 ug/ml by BACTEC radiometric method relative to control; format: functional; conditions: read-out: GI
[11] = test system: Mycobacterium tuberculosis; assay: Antimycobacterial activity against Mycobacterium tuberculosis H37Rv ATCC 27294; format: functional
[12] = test system: Mycobacterium tuberculosis; assay: Antimycobacterial activity against Mycobacterium tuberculosis H37Rv incubated for 4 weeks; format: functional; conditions: 672 h
[13] = test system: Mycobacterium tuberculosis; assay: Antimycobacterial activity against Mycobacterium tuberculosis H37Rv incubated for 45 days by Lowenstein-Jensen method; format: functional; conditions: 1080 h, time 45 day
[14] = test system: Mycobacterium tuberculosis; assay: Antimycobacterial activity against Mycobacterium tuberculosis H37Rv by filter paper disc diffusion method; format: functional
[15] = test system: Mycobacterium tuberculosis; assay: Antimycobacterial activity against Mycobacterium tuberculosis H37Rv ATCC27294 incubated for 7 days by microplate alamar blue assay; format: functional; conditions: H37Rv ATCC 27294, 168 h, time 7 day
[16] = test system: Mycolicibacterium smegmatis; assay: Antimycobacterial activity against Mycobacterium smegmatis ATCC 35797 incubated for 48 hrs by agar dilution method; format: functional
[17] = test system: Mycobacterium tuberculosis; assay: Antimycobacterial activity against Mycobacterium tuberculosis ATCC 27286 assessed as zone of inhibition at 20 ug/ml; format: functional; conditions: read-out: IZ
[18] = test system: Mycobacterium tuberculosis; assay: Antimycobacterial activity against Mycobacterium tuberculosis H37Rv incubated for 7 days by microplate alamar blue assay; format: functional; conditions: 168 h, time 7 day
[19] = test system: Mycobacterium tuberculosis; assay: Antimycobacterial activity against Mycobacterium tuberculosis H37Rv ATCC27294 measured after 28 days by two-fold serial dilution method; format: functional; conditions: H37Rv ATCC 27294, 672 h, time 28 day
[20] = test system: Mycobacterium tuberculosis; assay: Antimycobacterial activity against Mycobacterium tuberculosis H37Rv ATCC 27294 incubated for 5 days by microplate alamar blue assay; format: functional; conditions: H37Rv ATCC 27294, 120 h, time 5 day
[21] = Cytotoxicity against African green monkey Vero cells after 72 hrs by cell titer glo luminescent cell viability assay; format: cell-based; conditions: chlorocebus sabaeus
[22] = test system: Mycobacterium tuberculosis; assay: Antimycobacterial activity against Mycobacterium tuberculosis H37Rv 27294 by microplate alamar blue assay; format: functional
[23] = test system: Mycobacterium tuberculosis; assay: Antimycobacterial activity against Mycobacterium tuberculosis H37Rv assessed as growth inhibition at 6.25 ug/ml by BACTEC radiometric method relative to control; format: functional; conditions: read-out: GI
[24] = Inhibition of Mycobacterium tuberculosis Pantothenate Synthetase expressed in Escherichia coli BL21(DE3) cells using beta-alanine as substrate
[25] = test system: Mycobacterium tuberculosis; assay: Antimycobacterial activity against Mycobacterium tuberculosis H37Rv assessed as bacterial growth inhibition at 6.25 ug/ml by BACTEC MGIT method relative to control; format: functional
[26] = test system: Mycobacterium tuberculosis; assay: Antimycobacterial activity against Mycobacterium tuberculosis H37Rv assessed as inhibition of bacteria at 12.5 ug/ml measured after 12 to 28 days by Lowenstein-Jensen method relative to control; format: functional; conditions: time 12-28 day
[27] = test system: Mycobacterium tuberculosis; assay: Antimycobacterial activity against Mycobacterium tuberculosis H37Rv assessed as growth inhibition at 16 ug/ml measured after 12 to 28 days by Lowenstein-Jensen agar method relative to control; format: functional; conditions: time 12-28 day, read-out: GI

Cc1nc(-c2cnccn2)sc1C(=O)NN1C(=O)CSC1c1ccccc1 (configuration not stated)
inhibition at 30 µg/mL [1]: 71%

O=C(NN1C(=O)CSC1c1ccccc1O)c1coc2ccc3ccccc3c12 (configuration not stated)
MIC [2]: 50 µg/mL (≈ 124 µM)

O=C(NCCCN1c2ccccc2Sc2ccccc21)N1C(=O)/C(=C/c2ccc([N+](=O)[O-])cc2)SC1c1ccc([N+](=O)[O-])cc1 (configuration not stated)
inhibition of growth at 50 µg/mL [3]: 82%

O=C1/C(=C/c2ccc(F)cc2)SC(=S)N1Cc1nnc(-c2cccnc2SCc2ccccc2)o1
inhibition of growth at 50 µg/mL [3]: 99%

N#CSc1ccc2nc(NC(=O)CN3C(=O)/C(=C/c4cccc(Br)c4)SC3=S)sc2c1
MIC [4]: 25 µg/mL (≈ 45.7 µM)

NC(=S)N/N=C/c1ccc(OC(=O)CC2SC(=O)NC2=O)cc1 (configuration not stated)
MIC [5]: 0.031 µg/mL (≈ 0.088 µM)
selectivity ratio [6]: > 10
Ratio [7]: 2

O=C1CSC(c2ccccc2)N1C(=O)NCCCN1c2ccccc2Sc2ccccc21 (configuration not stated)
inhibition of growth at 50 µg/mL [3]: 75%

NC(=S)N/N=C/c1ccc(OC(=O)/C=C2\SC(=O)NC2=O)c(Cl)c1
MIC [5]: 0.031 µg/mL (≈ 0.0806 µM)
selectivity ratio [6]: > 10
Ratio [7]: 2

Cc1cc(NS(=O)(=O)c2ccc(N3C(=O)CSC3c3c(F)cccc3F)cc2)no1 (configuration not stated)
IC90 [8]: 0.43 µg/mL (≈ 0.952 µM)

Cc1cc(NS(=O)(=O)c2ccc(N3C(=O)CSC3c3ccc(Cl)cc3)cc2)no1 (configuration not stated)
IC90 [8]: 0.43 µg/mL (≈ 0.956 µM)

Cc1nc(/N=C2\C(=O)Nc3ccccc32)sc1C(=O)NN1C(=O)CSC1c1ccccc1Cl (configuration not stated)
MIC [9]: 0.78 µM (≈ 0.388 µg/mL)

Cc1ccc(N2C(=O)CSC23C(=O)N(CN2CCOCC2)c2ccc(C)cc23)cc1 (configuration not stated)
inhibition of growth at 12.5 µg/mL [10]: 90%

O=C(NCCCN1c2ccccc2Sc2ccccc21)N1C(=O)/C(=C/c2cccc([N+](=O)[O-])c2)SC1c1cccc([N+](=O)[O-])c1 (configuration not stated)
inhibition of growth at 50 µg/mL [3]: 83%

CCn1c(C(=O)NN2C(=O)CSC2c2ccc([N+](=O)[O-])cc2)cc(=O)c2cc(F)c(N3CCNCC3)cc21 (configuration not stated)
MIC [11]: 16.3 µM (≈ 8.8 µg/mL)

O=C(NN1C(=O)CSC1c1cccc([N+](=O)[O-])c1)c1coc2ccc3ccccc3c12 (configuration not stated)
MIC [2]: 50 µg/mL (≈ 115 µM)

COc1ccc(/C=C2\SC(=O)N(CNNC(=O)c3ccncc3)C2=O)cc1
MIC [12]: 50 µg/mL (≈ 130 µM)

Cc1nc(/N=C2\C(=O)Nc3ccccc32)sc1C(=O)NN1C(=O)CSC1c1ccccc1F (configuration not stated)
MIC [9]: 0.78 µM (≈ 0.376 µg/mL)

CC[C@@H](CO)NCCN[C@@H](CC)CO [ETHAMBUTOL HYDROCHLORIDE]
MIC [13]: 1.45 µM

Cc1cc(NS(=O)(=O)c2ccc(N3C(=O)CSC3c3c(Cl)cccc3Cl)cc2)no1 (configuration not stated)
IC90 [8]: 0.43 µg/mL (≈ 0.888 µM)

NNC(=O)c1ccncc1 [ISONIAZID]
MIC [14]: 1.25 µg/mL (≈ 9.11 µM)
MIC [15]: 0.56 µg/mL (≈ 4.08 µM)
MIC [16]: 12.5 µg/mL (≈ 91.1 µM)
zone of inhibition at 20 µg/mL [17]: 31 mm
MIC [18]: 1.6 µg/mL
MIC [19]: 0.72 µM (≈ 0.0987 µg/mL)
MIC [13]: 0.64 µM (≈ 0.0878 µg/mL)
MIC [20]: 0.2 µg/mL (≈ 1.46 µM)

CN1C(=O)/C(=C/c2ccccc2F)S/C1=N/NC(=O)c1ccncc1
CC50 at 72 h [21]: 15.5 µg/mL (≈ 43.6 µM)
IC90 [22]: 2.95 µg/mL (≈ 8.28 µM)

COc1ccc(C(=O)Nc2ccc(C(=O)NN3C(=O)CSC3c3ccccc3)cc2)cc1 (configuration not stated)
inhibition of growth at 6.25 µg/mL [23]: 90%

COc1cc(/C=C2\SC(=S)N(CCC(=O)NNC(=O)c3ccncc3)C2=O)cc(OC)c1OC
pIC50 [24]: 6.46
MIC [18]: 1.55 µM

O=C(CNNC(=O)c1ccncc1)COc1ccc(/C=C2\SC(=O)NC2=O)cc1
MIC [12]: 50 µg/mL (≈ 121 µM)

Cc1ccc(/C=C2\SC(NCCn3c(C)nc4ccccc4c3=O)=NC2=O)cc1
inhibition at 6.25 µg/mL [25]: 99%

NC(=S)N/N=C/c1ccc(OC(=O)/C=C2\SC(=O)NC2=O)cc1
MIC [5]: 0.031 µg/mL (≈ 0.0885 µM)
selectivity ratio [6]: > 10
Ratio [7]: 2

O=C1CSC(c2cc3ccccc3nc2Cl)N1c1ccc(F)cc1 (configuration not stated)
inhibition at 12.5 µg/mL [26]: 99%

COc1ccc(C(CNC(=O)CNN2C(=O)CSC2c2ccc(O)c(OC)c2)C2(O)CCCCC2)cc1 (configuration not stated)
inhibition of growth at 16 µg/mL [27]: 99%

CC1Oc2ccccc2C=C1/C=C1\SC(=S)NC1=O (configuration not stated)
MIC [13]: 0.36 µM (≈ 0.104 µg/mL)

NC(=S)N/N=C/c1ccc(OC(=O)CC2SC(=O)NC2=O)c(Cl)c1 (configuration not stated)
MIC [5]: 0.031 µg/mL (≈ 0.0801 µM)
selectivity ratio [6]: > 10
Ratio [7]: 2
